# From patent US6368788B1 (priority 1987, dated 2002)
# Experiments:
# [1] = DTH sensitivity to tuberculin; type: in vivo, guinea pigs
# Experimental: In the second study, affects of L-Glu-L-Trp on DTH sensitivity were investigated in guinea pigs sensitized to tuberculin. L-Glu-L-Trp was administered ip at 10 μg/kg or 1000 μg/kg on the day of an intradermal sensitization with tuberculin antigen.
# [2] = Chronic primary gastritis and gastro-duodenitis; type: in vivo, human
# Source text: Twenty two patients (all men aged 18-30 years) suffering from chronic primary gastritis and gastro-duodenitis were entered into the trial. Diagnosis was based on physical examination, and clinical and laboratory investigations including roentgenoscopy and endoscopic examination of the stomach and duodenum. Patient entry criteria was further conditioned on the results of laboratory tests for i) pre-treatment immune indices (i.e., numbers of lymphocytes, T-, and B-lymphocytes, etc.; TABLE 46) and ii) the in vitro sheep red blood cell rosette forming response of T-lymphocytes to L-Glu-L-Trp, (i.e., whether in vitro incubation of patient peripheral blood lymphocytes with L-Glu-L-Trp increased the percentage of E-RFC). […] These twelve patients were entered into the trial.
# For determining normal values, the control group consisted of 28 normal healthy volunteers aged 17-23.
# Patients received L-Glu-L-Trp im daily at a dosage of 100 μg for 5 days in combination with their conventional ongoing treatment.
# [3] = Allergies (hayfever protocol); parameters: species or system human; conditions: in vivo
# Experimental: Twenty nine patients (29) with various diagnosed allergies were treated on a daily basis for 5-7 days with L-Glu-L-Trp at a dose of […] delivered im or by the intranasal route. Seventeen patients (17) in the control group received conventional therapy.
# [4] = test system: Influenza A; conditions: Combined Therapy: Conventional + L-Glu-L-Trp
# Experimental: A clinical trial was conducted in a group of 588 patients between the ages of 17-21 years all having a confirmed infection with Influenza A, (i.e., confirmation by either hemagglutination-inhibition or the presence of specific viral antigens).
# [5] = test system: Rauscher MuLV; assay: Anti-viral response to Rauscher MuLV; type: in vivo, mice; conditions: 50 μg/kg
# Source text: Innate mechanisms of anti-viral immunity are important to survival of the host. The Rauscher murine leukemia virus (MuLV) is an example of a highly virulent animal retrovirus infection, first isolated and characterized by Dr. Rauscher from BALB/c mouse tissues in 1962. […] The virus employed in present GLP/blinded study was a murine leukemia complex known to induce progressive erythroleukemia in mice (i.e., Rauscher MuLV and replication-defective Rauscher spleen focus-forming virus). Disease manifested within about 6 days with death by about 50 days. Measurements of splenomegaly, blood reverse transcriptase, virus plaque assays (i.e., XC-plaque assay for viremia using SC-1 host cells) and serum anti-viral antibody titers were used to assess infection. Spleens achieved about 2.0 grams in weight within 21 days of infection, as compared with a normal spleen weights in an uninfected animals of about 0.1 gram.
# Mice were inoculated with Rauscher MuLV complex (0.1 ml/7.8×10^4 PFU/mL) on day 0 and sacrificed on day 21. Test groups were comprised of 10 mice and control groups 6 mice. Control articles included saline and AZT (in drinking water at about 1.25 mg/mouse/day≈63 mg/kg/day/mouse). […] A non-infected group of mice was also sacrificed on day 21 to provide normal control values.
# In EXAMPLE 38, SC-1 cells were originally derived from murine embryos, and XC cells (a rat tumor cell line induced by Rous Sarcoma Virus) were obtained from the ATCC in Rockville, Md.
# [6] = 10 μg/kg ip on day of tuberculin sensitization
# [7] = 1000 μg/kg ip on day of tuberculin sensitization
# [8] = After L-Glu-L-Trp Combination Therapy
substance,measurement,setting,value
L-Glu-L-Trp,Mean Skin Test Diameter ± S.D. Day 10,[1]; [6],14.4 ± 1.3 mm
same,Mean Skin Test Diameter ± S.D. Day 20,[1]; [6],15.1 ± 1.4 mm
same,Mean Skin Test Diameter ± S.D. Day 10,[1]; [7],15.2 ± 1.3 mm
same,Mean Skin Test Diameter ± S.D. Day 20,[1]; [7],13.9 ± 1.1 mm
same,DTH response to tuberculin antigen,[1]; day 10 or day 20,statistically significant increase in the DTH response
same,B-Lymphocytes,[2]; [8],0.14 ± 0.02 ×10^9/L
same,B-Lymphocytes % Normal Value,[2]; [8],(97%)
same,B-Lymphocytes (%),[2]; [8],7.2 ± 1.5%
same,Null Lymphocytes,[2]; [8],0.9 ± 0.05 ×10^9/L
same,Null Lymphocytes % Normal Value,[2]; [8],(145%)
same,Null Lymphocytes (%),[2]; [8],37.3 ± 2.0 %
same,T-Lymphocytes,[2]; [8],1.04 ± 0.04 ×10^9/L
same,T-Lymphocytes % Normal Value,[2]; [8],(96%)
same,T-Lymphocytes (%),[2]; [8],55.4 ± 2.1 %
same,Clinical outcome,[2]; in vivo,more rapid recovery
same,Clinical outcome,[3],disappearance of allergic reactions
same,Increase in T-helper Cells Percentage,[4],17%
same,Length of Required Therapy,[4],7.1 ± 0.3 days
same,Pharyngitis manifestations,[4],3.6 ± 0.3 days
same,Secondary (Pneumonia) Complications,[4],4.0%
same,T-helper/T-suppressor Ratio,[4],2.7
same,Tracheitis manifestations,[4],3.6 ± 0.3 days
same,Viremia,[5],significantly decreased viremia
